Structures can show the parent of a compound that is named as a salt.

The text below walks through data of patent US11124523B2, “2,6-dioxaspiro [4,5] decane derivatives and preparation method therefor and pharmaceutical applications thereof” (SHANDONG LUYE PHARMACEUTICAL CO., LTD., priority 2017, dated 2021).

One data set deals with hERG potassium channels (Homo sapiens (Human), UniProt Q12809). The experiment in a line: Effects on hERG potassium channels (Qpatch, CHO-hERG cells). Type of data set: cell-based. The settings on record: highest test concentration 40 μM, read-out: IC50 representing the blocking effects of hERG potassium currents. Here is the method: 5.1 Experimental Purpose: To test the blocking effects of the compounds of the present disclosure on hERG potassium currents.
hERG potassium channels, sequence (Q12809 whole entry): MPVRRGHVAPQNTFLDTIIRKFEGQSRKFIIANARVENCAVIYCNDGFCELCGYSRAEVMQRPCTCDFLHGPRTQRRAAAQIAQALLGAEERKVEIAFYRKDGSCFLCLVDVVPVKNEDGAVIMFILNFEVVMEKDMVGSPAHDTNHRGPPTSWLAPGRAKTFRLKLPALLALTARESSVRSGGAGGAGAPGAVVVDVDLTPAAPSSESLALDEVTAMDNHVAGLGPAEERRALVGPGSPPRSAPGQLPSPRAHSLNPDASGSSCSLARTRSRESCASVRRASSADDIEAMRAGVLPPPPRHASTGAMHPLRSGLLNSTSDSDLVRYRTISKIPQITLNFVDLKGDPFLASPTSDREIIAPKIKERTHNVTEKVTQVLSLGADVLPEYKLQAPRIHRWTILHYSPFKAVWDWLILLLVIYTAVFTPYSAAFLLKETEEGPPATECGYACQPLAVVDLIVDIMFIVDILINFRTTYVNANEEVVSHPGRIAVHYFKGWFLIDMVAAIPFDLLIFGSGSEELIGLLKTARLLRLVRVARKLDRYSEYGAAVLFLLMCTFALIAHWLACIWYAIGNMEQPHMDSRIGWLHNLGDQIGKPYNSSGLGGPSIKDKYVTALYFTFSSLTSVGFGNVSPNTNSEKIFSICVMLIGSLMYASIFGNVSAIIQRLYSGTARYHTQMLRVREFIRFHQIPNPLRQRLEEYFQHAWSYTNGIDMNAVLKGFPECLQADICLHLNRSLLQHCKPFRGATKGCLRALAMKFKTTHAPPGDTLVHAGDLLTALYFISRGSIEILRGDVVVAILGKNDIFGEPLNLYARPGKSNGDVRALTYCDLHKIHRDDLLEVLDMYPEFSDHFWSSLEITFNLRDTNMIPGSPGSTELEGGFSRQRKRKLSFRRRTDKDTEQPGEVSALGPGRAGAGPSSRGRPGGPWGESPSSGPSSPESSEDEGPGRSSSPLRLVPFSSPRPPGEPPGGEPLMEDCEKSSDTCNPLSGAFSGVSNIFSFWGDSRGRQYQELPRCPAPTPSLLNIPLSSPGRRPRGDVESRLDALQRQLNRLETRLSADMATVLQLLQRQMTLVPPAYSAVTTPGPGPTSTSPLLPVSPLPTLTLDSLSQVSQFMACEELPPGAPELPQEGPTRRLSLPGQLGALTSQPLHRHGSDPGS
a. CHO-hERG cells were cultured in a 175 cm^2 culture flask. When the cells were grown to a density of 60 to 80%, the culture solution was removed, and the cells were washed once with 7 mL of PBS (phosphate buffer solution), and then 3 mL of a cell digestion solution (Detachin) was added for digestion of the cells.
b. After completely digested, the cells were neutralized by adding 7 mL of the culture solution and then centrifuged, the supernatant was removed, and then 5 mL of the culture solution was added for resuspension to ensure a cell density of 2 to 5×10^6 cells/mL.
The single-cell high-impedance sealing and whole-cell pattern formation processes were both carried out automatically by the Qpatch instrument. After the whole-cell recording pattern was obtained, the cells were clamped at −80 millivolts. A preceding voltage of −50 millivolts was applied for 50 milliseconds prior to application of a depolarizing stimulus of +40 millivolts for 5 seconds, and then the cells were repolarized to −50 millivolts and maintained for 5 seconds and then returned back to −80 millivolts. This voltage stimulation was applied every 15 seconds, and data were recorded for 2 minutes, and thereafter the extracellular fluid was administered and data were recorded for 5 minutes, and then the administration process was started. The compound was administered for 2.5 minutes at each test concentration from the lowest test concentration. After all the concentrations of the compound were administered, […] of Cisapride was administered as a positive comparative compound. At least three cells (n>3) were tested for each concentration.
a. A 20 mM compound mother solution was diluted with the extracellular fluid, wherein 5 μL of the 20 mM compound mother solution was taken and diluted 500 times to 40 μM by adding 2495 μL of the extracellular fluid thereto, and then 3-fold serial dilutions were performed sequentially in the extracellular fluid containing 0.2% DMSO to obtain a final concentration to be tested.
b. The highest test concentration was 40 μM, and there were six concentrations in total, i.e., 40, 13.33, 4.44, 1.48, 0.49, and 0.16 μM, respectively.
c. The DMSO content in the final test concentration was not more than 0.2%. This concentration of DMSO had no effect on the hERG potassium channel.
The experimental data were analyzed by XLFit software.
For orientation: Block of hERG is tested as a sign of cardiac risk.

For data set [1] the following is noted: published Phase 2 clinical trial data; compared to morphine; cited from earlier work.

As to `c1ccc([C@]2(CCNCc3scc4c3CCC4)CCO[C@]3(CCOC3)C2)nc1` [(+)-2], the IC50 at hERG potassium channels is > 40 µM.
The same measure, in the same setting: next, `Cc1cccc(CNCC[C@@]2(c3ccc(F)cn3)CCO[C@]3(CCOC3)C2)c1` [Hydrochloride Salt of (+)-22]: 18.8 µM.
Regarding `COc1ccsc1CNCC[C@@]1(c2ccccn2)CCOC2(CCCC2)C1` [compound 1, Oliceridine, reference compound], the “side effects, Phase 2 clinical trial (in words)” value in data set [1] is “significant reduction in side effects compared to morphine”. For the same compound, the IC50 at hERG potassium channels was determined as 5.5 µM.

By IC50 is commonly meant the concentration that inhibits the measured activity by half.
